Assay results from patent publication US20180009764A1, “METHOD FOR TREATING MACROPHAGE MIGRATION INHIBITORY FACTOR (MIF)-IMPLICATED DISEASES AND CONDITIONS WITH IODO PYRIMIDINE DERIVATIVES” (UNIVERSITY OF LOUISVILLE RESEARCH FOUNDATION, INC., priority 2009, published 2018).

Assays:
[1] = Microsomal stability in human liver microsomes; format: in vitro ADME; conditions: both, human, microsomes, pH 7.4
Experimental: Stability in human liver microsomes was tested over […] at 37° C. using pooled mixed gender human liver microsomes. Liver microsomes were prepared at 1.0 mg/ml of microsomal protein in a 100 mM potassium phosphate pH 7.4 buffer with 1 mM NADPH. The media was incubated at 37° C. with the compound in solution in DMSO. The concentration of the compound was followed by LC/MS-MS as a function of time. Samples were assayed at t=0, 30, 60 and 120 minutes. Testosterone was used as a positive control. The same experiment was performed with mouse liver microsomes instead of human liver microsomes.

Du 145 = test: Inhibition of tumor cells proliferation (CellTiter Glo); format: cell-based; conditions: Homo sapiens, 72 hours
Experimental: Inhibition of the proliferation of tumor cells was investigated in vitro in several tumor cell lines. Cells of the desired tumor cell line were plated at 2×10^5 cells/ml in 96 well plates. Twice the indicated concentrations of the compounds of the invention were added to cells the following day in an equal volume of media. 72 hours later, cells were lysed and subjected to ATP determination using the CellTiter Glo-Luminescent Cell Viability Assay kit (Promega, Madison, Wis.). Experiments were done in triplicate. Results for the inhibition of cells proliferation are reported as IC50 (the concentration leading to a 50% inhibition of proliferation of the cell population) and are listed in Table 6. FIGS. 3 and 4 show bar graphs comparing the IC50s of specific embodiments of compounds of the invention across multiple tumor cell lines.

Caco-2 monolayers = test: Caco-2 cell permeability and transport; format: in vitro ADME; design: Caco-2 Permeability Papp B-A / Caco-2 Permeability Papp A-B: unit not given here; conditions: for Caco-2 Permeability Papp A-B: apical-to-basolateral
Experimental: (§1) Cell permeability and transport mechanisms in Caco-2 and MDR1-MDCK monolayers experiments were performed in triplicate in the apical-to-basolateral and basolateral-to-apical direction using […]® wells containing either Caco-2 or MDR1-MDCK monolayers. A modified Hanks buffer pH 7.4 was used in both reservoir and receiver wells with the addition of 1% BSA in the receiver side. Confluent monolayers were used and their integrity was verified using reference compounds (Atenolol as a low permeability reference compound and Propanolol as a high permeability reference compound). A sample in the basolateral and apical sides was taken after 2 hours and the concentration measured by LC/MS-MS.

[2] = test system: Chick Chorioallantoic Membrane (CAM); test: Chick chorioallantoic membrane (CAM) assay, o ring; format: in vivo; conditions: for Blood Vessel Density: o ring; for Anti-angiogenic properties: CAM assay, in words
Experimental: 8 groups with 10 embryos in each group were used in the experiment described below. Fresh fertile eggs were incubated for 3 days in a standard egg incubator at 37° C. for 3 days. On Day 3, eggs were cracked under sterile conditions and embryos were placed into 20×100 mm plastic plates and cultivated at 37° C. in an embryo incubator with a water reservoir on the bottom shelf. Air was continuously bubbled into the water reservoir using a small pump so that the humidity in the incubator is kept constant. On Day 6, a sterile silicon “o” ring was placed on each CAM and test compound dissolved in 0.5% methylcellulose was placed into each “o” ring in a sterile hood. Paclitaxel was used as a positive control. Embryos were returned to the incubator after addition of test material. Control embryos received 10 μL of vehicle alone. On Day 8, embryos were removed from the incubator and kept at room temperature while blood vessel density were determined under each “o” ring using an image capturing system at a magnification of 160×. The blood vessel density was measured using an angiogenesis scoring system in that arithmetic numbers 0 to 5 (or exponential numbers 1 to 32) are used to indicate number of blood vessels present at the treatment sites on the CAM. Number 5 represents the highest density and 0 represents no angiogenesis. The percent of inhibition at each dosing site was calculated using the score recorded for that site divided by the mean score obtained from the appropriate control samples for each individual experiment. The percent of inhibition for each dose of a given compound was calculated by pooling all results obtained for that dose from 8-10 embryos.

[3] = Pharmacokinetics parameters in rats; format: in vivo; conditions: rat, plasma; for Vd: intravenous, read-out: Volume of distribution; for clearance: iv, after i.v. administration; for half-life: read-out: Terminal plasma half-life (converted)
Experimental: The pharmacokinetic parameters of several compounds were investigated in rodents. Both oral and iv administration were investigated in rats. Blood samples were collected over time; plasma was analyzed using an LC/MS-MS method. Pharmacokinetic parameters were calculated using Win-NonLin. Terminal plasma half-lives were 7.10 hr for ACT-MIF-001, 1.66 hr for ACT-MIF-002, and 1.50 hr for ACT-MIF-003. […] The volume of distribution values were 72666 mL/kg for ACT-MIF-001, 2118 mL/kg for ACT-MIF-002, and 1926 mL/kg for ACT-MIF-003.

MDR1-MDCK monolayers = test: MDR1-MDCK cell permeability and transport; format: in vitro ADME; conditions: for Efflux: class in words
Experimental: as §1

pancreatic tumor model = test: Efficacy study in a pancreatic tumor model; format: in vivo; conditions: daily 40 mg/kg IP; for Survival: FIG. 10
Experimental: The activity of the compounds of the invention was investigated in a pancreatic tumor model using an experiment similar to the one described in EXAMPLE 69. Compounds ACT-MIF-002 and ACT-MIF-003 were dosed daily at 40 mg/kg via IP administration.
Lumbar regions of the control and treated groups were excised and sent for histopathological evaluation. […] In the example shown in FIG. 11, bone marrow of the vehicle treated mice is consistent with bone metastases (1) with evidence of surrounding skeletal muscle metastases from invading marrow tumor cells (2 and 3).

MIF = target: T1, MIF (Homo sapiens, UniProt P14174); test: MIF cell lysate enzymatic inhibition; format: biochemical; conditions: cell lysates
T1 construct: the enzymatic activity of MIF present in cell lysates; endogenous in cells
T1 sequence (P14174 2-115 limits assumed): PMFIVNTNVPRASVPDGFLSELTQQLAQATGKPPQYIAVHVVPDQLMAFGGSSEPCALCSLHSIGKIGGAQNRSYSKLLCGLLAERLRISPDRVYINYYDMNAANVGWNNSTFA
Experimental: Normal or transformed cell lysates can be used to determine the concentration inhibiting the enzymatic activity of MIF present in cell lysates. Cells are cultured in the appropriate media to the required number of cells, collected, and lysed. Compounds to be characterized are solubilized in DMSO and serial dilutions are performed in order to obtain a range of concentrations including complete and no quantifiable inhibition.

in vitro = in vitro ADME; conditions: human, plasma, Human Plasma Protein Binding % Bound
Source text: Plasma protein binding was ascertained using dialysis equilibrium methods known in the art.

Row | Compound | Metabolic Stability in Human Microsomes % Remaining ([1]; 0 h) | Metabolic Stability in Human Microsomes % Remaining ([1]; 1 h) | IC50 (Du 145) | Caco-2 Permeability Class (Caco-2 monolayers) | Caco-2 Permeability Papp A-B (Caco-2 monolayers; pH 7.4, 2 hours) | Blood Vessel Density ([2]; 0.3 nM per CAM) | Blood Vessel Density ([2]; 3 nM per CAM) | Blood Vessel Density ([2]; 30 nM per CAM) | Anti-angiogenic properties [2] | Vd [3] | clearance [3] | half-life [3] | Brain penetration classification (MDR1-MDCK monolayers) | P-gp Substrate (MDR1-MDCK monolayers) | Efflux (MDR1-MDCK monolayers) | Body weight and clinical signs of toxicity (pancreatic tumor model) | Metastatic tumor burden (pancreatic tumor model) | Survival (pancreatic tumor model) | IC50 (MIF) | fraction unbound (in vitro) | other results
1 | Fc1ccccc1-c1cc(I)ncn1 [ACT-MIF-003, 4-Iodo-6-(2-fluorophenyl)pyrimidine] | 100% | 57% | 16.5 µM | High | 2.1 | 11.6 ± 1.2 | 4.2 ± 1.2 | 4.1 ± 0.7 | high anti-angiogenic properties | 1.93 L/kg | 197 mL/min/kg | 1.5 h | High | No | High | no body weight loss and no clinical signs of toxicity | limited the metastatic tumor burden | significant impact on survival | 0.2 µM | 0.038 | Caco-2 Permeability Papp B-A (Caco-2 monolayers; basolateral-to-apical, pH 7.4, 2 hours): 2.6
2 | COc1ccc(-c2cc(I)ncn2)c(F)c1 [ACT-MIF-002, 4-Iodo-6-(2-fluoro-4-methoxyphenyl)pyrimidine] | 100% | <2% | 24.9 µM | Low | 0.2 | 9.4 ± 2.4 | 8.6 ± 2.6 | 4.4 ± 1.3 | high anti-angiogenic properties | 2.12 L/kg | 132 mL/min/kg | 1.66 h | Low | No | High | no body weight loss and no clinical signs of toxicity | limited the metastatic tumor burden | significant impact on survival | 0.07 µM | 0.021 | Caco-2 Efflux (Caco-2 monolayers): 1.7; Bone metastases, histopathology of lumbar region (pancreatic tumor model; FIG. 11): no evidence of bone metastases
